Key:
A. borkumensis YdaH = molecular target: T1, A. borkumensis YdaH (Alcanivorax borkumensis, UniProt Q0VR69); experiment: isothermal titration calorimetry; type: binding
T1 sequence (Q0VR69 1-492): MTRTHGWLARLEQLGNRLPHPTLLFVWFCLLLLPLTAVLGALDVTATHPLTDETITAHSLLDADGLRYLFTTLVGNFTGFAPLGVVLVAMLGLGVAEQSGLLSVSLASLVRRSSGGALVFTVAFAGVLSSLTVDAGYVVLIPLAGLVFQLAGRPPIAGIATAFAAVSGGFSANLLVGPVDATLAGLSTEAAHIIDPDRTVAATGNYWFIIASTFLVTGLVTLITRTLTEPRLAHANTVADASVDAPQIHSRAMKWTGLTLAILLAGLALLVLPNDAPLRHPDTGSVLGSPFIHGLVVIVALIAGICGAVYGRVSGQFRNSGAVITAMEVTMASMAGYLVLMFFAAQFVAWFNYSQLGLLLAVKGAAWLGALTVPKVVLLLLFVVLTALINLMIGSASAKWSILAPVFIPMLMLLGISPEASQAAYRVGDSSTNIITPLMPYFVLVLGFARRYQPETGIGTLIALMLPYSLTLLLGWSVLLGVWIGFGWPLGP

[1] = molecular target: A. borkumensis YdaH transporter (Alcanivorax borkumensis) (UniProt Q0VR69); experiment: SEC

| Compound | Kd (A. borkumensis YdaH) [nM] | stoichiometry N [1] |
| --- | --- | --- |
| Nc1ccc(S(=O)(=O)Nc2ncccn2)cc1 [sulfadiazine] | 7040 ± 540 |  |
| Nc1ccc(S(=O)(=O)Nc2nccs2)cc1 [sulfathiazole] | 600 ± 20 |  |
| A. borkumensis YdaH transporter (from UniProt Q0VR69 1-492) (natural protein) |  | 2 |
| Cc1cc(C)nc(NS(=O)(=O)c2ccc(N)cc2)n1 [sulfamethazine] | 410 ± 30 |  |

Source: article PMC4410182 (Nature communications, 2015)
